Tests used:
[1] = solubility, pH dependence; assay type: physicochemical; conditions: mesylate; increasing pH
[2] = rat pharmacokinetic studies, oral administration; assay type: in vivo; conditions: rats
[3] = pharmacokinetics in Beagle dogs, oral administration of the compound; assay type: in vivo

bioavailability ([2]; rat, blood, oral): 96.3%
half-life ([2]; rat, blood, oral administration, read-out: elimination half-life (converted)): ~108 min
peak blood concentration (time) ([2]; oral administration): 0.5 h
half-life ([3]; dog, blood, Beagle dogs, read-out: elimination half-life (converted)): ~210 min
time to peak blood concentration (Tmax) ([3]; dogs): 30 min
Compound: COC(=O)c1cc(OC)c2c(c1-c1c(CN3CCOCC3)cc(OC)c3c1OCO3)OCO2 [IMM-H014, methyl 7,7′-dimethoxy-5′-(morpholinomethyl)-[4,4′-bibenzo[d][1,3]dioxole]-5-carboxylate]
solubility (pH-dependent) [1]: as the pH increases, the solubility gradually decreases

Reference: patent US20250288590A1, “DRUG SUSTAINED-RELEASE TABLET FOR TREATING LIVER DISEASE, PREPARATION METHOD THEREFOR AND USE THEREOF” (CHANGCHUN INTELLICROWN PHARMACEUTICAL CO., LTD., priority 2022, published 2025)
